Measured values: patent US8637523B2, “Compounds for the reduction of beta-amyloid production” (Bristol-Myers Squibb Company, priority 2010, dated 2014)

What follows are compounds tested on Aβ42 (assay: Cellular assay for inhibition of Aβ1-42 production (H4 APP751 SWE clone 8.20)). Conditions: 19 h, H4 APP751 SWE clone 8.20 cells, 19 h incubation; read-out: Activity Rating (Aβ42 cellular IC50), class symbol.
Assay type: cell-based
Method in brief: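 Viewlux signal read-out; IC50 by curve fit. Sandwich: 565 anti-Aβ42 neoepitope (Wallac conjugate, 0.8 ng/well) + 26D6 anti-N-terminus (APC, 75 ng/well), in Tris-HCl 40 mM pH 7.4/0.2% BSA, o/n 4 °C. Cells exposed to compound 19 h, 37 °C, 5% CO2.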

Row | IC50 [nM] | Compound
1 | < 10 | Clc1cn(-c2ccc3cc2OCCCNc2nc(nc4c2CCC4c2ccccc2)N3)cn1 (stereo not drawn) [Example 9A, 7-(4-chloro-1H-imidazol-1-yl)-17-phenyl-11,12,13,15,16,17-hexahydro-10H-14,2-(azeno)-8,4-(metheno)cyclopenta[g][1,5,9,11]oxatriazacyclohexadecine]
2 | 10 to 100 | N#Cc1ccc2cc1OCC(O)CCNc1nc(nc3c1CCC3c1ccc(F)cc1)N2 (single isomer, unassigned) [Example 73A, 7-cyano-18-(4-fluorophenyl)-10,11,12,13,14,16,17,18-octahydro-15,2-(azeno)-8,4-(metheno)cyclopenta[h][1,6,10,12]oxatriazacycloheptadecin-11(3H)-ol]
3 | 10 to 100 | Cc1ncn(-c2ccc3cc2OCCCCNc2nc(nc4c2CCC4c2ccc(F)cc2F)N3)n1 (stereo not drawn) [Example 64B, 18-(2,4-difluorophenyl)-7-(3-methyl-1H-1,2,4-triazol-1-yl)-10,11,12,13,14,16,17,18-octahydro-15,2-(azeno)-8,4-(metheno)cyclopenta[h][1,6,10,12]oxatriazacycloheptadecine]
4 | 10 to 100 | Cc1ncn(-c2ccc3cc2OCCCCN(C)c2nc(nc4c2CCC4c2ccc(F)cc2F)N3)n1 (stereo not drawn) [Example 61B, 18-(2,4-difluorophenyl)-14-methyl-7-(3-methyl-1H-1,2,4-triazol-1-yl)-10,11,12,13,14,16,17,18-octahydro-15,2-(azeno)-8,4-(metheno)cyclopenta[h][1,6,10,12]oxatriazacycloheptadecine]

Same assay, conditions: 19 h, H4 APP751 SWE clone 8.20 cells, 19 h incubation; unit inferred; read-out: Activity Rating (Aβ42 cellular IC50), numeric value

Row | IC50 [nM] | Compound
5 | 8.8 | CC1C/C=C/COc2cc(ccc2-n2cnc(Cl)c2)Nc2nc(c3c(n2)C(c2ccccc2)CC3)N1 (stereo not drawn) [Example 7A, (11E)-7-(4-chloro-1H-imidazol-1-yl)-14-methyl-19-phenyl-3,10,13,14,15,17,18,19-octahydro-2,16-(azeno)-8,4-(metheno)cyclopenta[j][1,7,9,13]oxatriazacyclooctadecine]
6 | 140 | CN1CCCOc2cc(ccc2C#N)Nc2nc3c(c1n2)CCC3c1ccc(F)cc1F (stereo not drawn) [Example 35B, 7-cyano-17-(2,4-difluorophenyl)-13-methyl-11,12,13,15,16,17-hexahydro-10H-14,2-(azeno)-8,4-(metheno)cyclopenta[g][1,5,9,11]oxatriazacyclohexadecine]
7 | 30 | Cc1ncn(-c2ccc3cc2OC/C=C\CN(C)c2nc(nc4c2CCC4c2ccccc2)N3)n1 (stereo not drawn) [Example 44B, (11Z)-14-methyl-7-(3-methyl-1H-1,2,4-triazol-1-yl)-18-phenyl-10,13,14,16,17,18-hexahydro-15,2-(azeno)-8,4-(metheno)cyclopenta[h][1,6,10,12]oxatriazacycloheptadecine]
8 | 5.5 | Cc1ncn(-c2ccc3cc2OC/C=C\CN(C)c2nc(nc4c2CCC4c2ccc(F)cc2F)N3)n1 (stereo not drawn) [Example 57A, (11Z)-18-(2,4-difluorophenyl)-14-methyl-7-(3-methyl-1H-1,2,4-triazol-1-yl)-10,13,14,16,17,18-hexahydro-15,2-(azeno)-8,4-(metheno)cyclopenta[h][1,6,10,12]oxatriazacycloheptadecine]
9 | 4.1 | Cc1ncn(-c2ccc3cc2OCCCCN(C)c2nc(nc4c2CCC4c2ccc(F)cc2F)N3)n1 (stereo not drawn) [Example 61A, 18-(2,4-difluorophenyl)-14-methyl-7-(3-methyl-1H-1,2,4-triazol-1-yl)-10,11,12,13,14,16,17,18-octahydro-15,2-(azeno)-8,4-(metheno)cyclopenta[h][1,6,10,12]oxatriazacycloheptadecine]
10 | 11 | CN1CCCOc2cc(ccc2-n2cnc(Cl)c2)Nc2nc3c(c1n2)CCC3c1ccc(F)cc1F (stereo not drawn) [Example 20B, 7-(4-chloro-1H-imidazol-1-yl)-17-(2,4-difluorophenyl)-13-methyl-11,12,13,15,16,17-hexahydro-10H-14,2-(azeno)-8,4-(metheno)cyclopenta[g][1,5,9,11]oxatriazacyclohexadecine]
11 | 3.6 | CC1C/C=C\COc2cc(ccc2-n2cnc(Cl)c2)Nc2nc(c3c(n2)C(c2ccccc2)CC3)N1 (stereo not drawn) [Example 6A, (11Z)-7-(4-chloro-1H-imidazol-1-yl)-14-methyl-19-phenyl-3,10,13,14,15,17,18,19-octahydro-2,16-(azeno)-8,4-(metheno)cyclopenta[j][1,7,9,13]oxatriazacyclooctadecine]

Same assay, conditions: H4 APP751 SWE clone 8.20 cells, 19 h incubation; read-out: Activity Rating (Aβ42 cellular IC50), class symbol

Row | IC50 [nM] | Compound
12 | < 10 | Clc1cn(-c2ccc3cc2OC/C=C/CCNc2nc(nc4c2CCC4c2ccccc2)N3)cn1 (stereo not drawn) [Example 5A, (11E)-7-(4-chloro-1H-imidazol-1-yl)-19-phenyl-3,10,13,14,15,17,18,19-octahydro-2,16-(azeno)-8,4-(metheno)cyclopenta[j][1,7,9,13]oxatriazacyclooctadecine]
13 | 100 to 1000 | (11Z)-7-cyano-18-phenyl-10,13,14,16,17,18-hexahydro-15,2-(azeno)-8,4-(metheno)cyclopenta[h][1,10,12]oxadiazacycloheptadecine [Example 36A]
14 | < 10 | Cc1ncn(-c2ccc3cc2OCC=CCCc2nc(nc4c2CCC4c2ccccc2)N3)n1 (stereo not drawn) [Example 59A, (11E)-7-(3-methyl-1H-1,2,4-triazol-1-yl)-18-phenyl-10,13,14,16,17,18-hexahydro-15,2-(azeno)-8,4-(metheno)cyclopenta[h][1,10,12]oxadiazacycloheptadecine]
15 | 10 to 100 | CN1CC=CCOc2cc(ccc2-n2cnc(Cl)c2)Nc2nc3c(c1n2)CCC3c1ccccc1 (stereo not drawn) [Example 3B, (11Z)-7-(4-chloro-1H-imidazol-1-yl)-14-methyl-18-phenyl-10,13,14,16,17,18-hexahydro-15,2-(azeno)-8,4-(metheno)cyclopenta[h][1,6,10,12]oxatriazacycloheptadecine]
16 | 10 to 100 | N#Cc1ccc2cc1OCC=CCNc1nc(nc3c1CCC3c1ccccc1)N2 (stereo not drawn) [Example 22A, (11E)-7-cyano-18-phenyl-10,13,14,16,17,18-hexahydro-15,2-(azeno)-8,4-(metheno)cyclopenta[h][1,6,10,12]oxatriazacycloheptadecine]
17 | 10 to 100 | CN1CCCCOc2cc(ccc2-n2cnc(Cl)c2)Nc2nc3c(c1n2)CCC3c1ccc(F)cc1F (stereo not drawn) [Example 19B, 7-(4-chloro-1H-imidazol-1-yl)-18-(2,4-difluorophenyl)-14-methyl-10,11,12,13,14,16,17,18-octahydro-15,2-(azeno)-8,4-(metheno)cyclopenta[h][1,6,10,12]oxatriazacycloheptadecine]
18 | 10 to 100 | (11Z)-7-(4-chloro-1H-imidazol-1-yl)-18-phenyl-10,13,14,16,17,18-hexahydro-15,2-(azeno)-8,4-(metheno)cyclopenta[h][1,6,10,12]oxatriazacycloheptadecine [Example 1B]
19 | 10 to 100 | N#Cc1ccc2cc1OCC(O)CCNc1nc(nc3c1CCC3c1ccc(F)cc1)N2 (single isomer, unassigned) [Example 73C, 7-cyano-18-(4-fluorophenyl)-10,11,12,13,14,16,17,18-octahydro-15,2-(azeno)-8,4-(metheno)cyclopenta[h][1,6,10,12]oxatriazacycloheptadecin-11(3H)-ol]
20 | < 10 | Cc1ncn(-c2ccc3cc2OCCCCN(C)c2nc(nc4c2CCC4c2ccccc2)N3)n1 (stereo not drawn) [Example 50A, 14-methyl-7-(3-methyl-1H-1,2,4-triazol-1-yl)-18-phenyl-10,11,12,13,14,16,17,18-octahydro-15,2-(azeno)-8,4-(metheno)cyclopenta[h][1,6,10,12]oxatriazacycloheptadecine]
21 | < 10 | Fc1ccc(C2CCc3c4nc(nc32)Nc2ccc(-n3cnc(Cl)c3)c(c2)OCC=CCN4)c(F)c1 (stereo not drawn) [Example 15A, (11E)-7-(4-chloro-1H-imidazol-1-yl)-18-(2,4-difluorophenyl)-10,13,14,16,17,18-hexahydro-15,2-(azeno)-8,4-(metheno)cyclopenta[h][1,6,10,12]oxatriazacycloheptadecine]
22 | 10 to 100 | CN1CC=CCOc2cc(ccc2C#N)Nc2nc3c(c1n2)CCC3c1ccccc1 (stereo not drawn) [Example 30A, (11E)-7-cyano-14-methyl-18-phenyl-10,13,14,16,17,18-hexahydro-15,2-(azeno)-8,4-(metheno)cyclopenta[h][1,6,10,12]oxatriazacycloheptadecine]
23 | < 10 | (11Z)-18-(2,4-difluorophenyl)-7-(3-methyl-1H-1,2,4-triazol-1-yl)-10,13,14,16,17,18-hexahydro-15,2-(azeno)-8,4-(metheno)cyclopenta[h][1,6,10,12]oxatriazacycloheptadecine [Example 51A]
24 | 10 to 100 | Cc1ncn(-c2ccc3cc2OCCNCCNc2nc(nc4c2CCC4c2ccc(F)cc2)N3)n1 (single isomer, unassigned) [Example 55A, 19-(4-fluorophenyl)-7-(3-methyl-1H-1,2,4-triazol-1-yl)-11,12,13,14,15,17,18,19-octahydro-10H-16,2-(azeno)-8,4-(metheno)cyclopenta[i][1,4,7,11,13]oxatetraazacyclooctadecine]

Same assay, conditions: H4 APP751 SWE clone 8.20 cells, 19 h incubation; unit inferred; read-out: Activity Rating (Aβ42 cellular IC50), numeric value

Row | IC50 [nM] | Compound
25 | 24 | (11Z)-7-(3-methyl-1H-1,2,4-triazol-1-yl)-18-phenyl-10,13,14,16,17,18-hexahydro-15,2-(azeno)-8,4-(metheno)cyclopenta[h][1,10,12]oxadiazacycloheptadecine [Example 58B]
26 | 160 | CC1(c2ccc(F)cc2)CCc2c3nc(nc21)Nc1ccc(C#N)c(c1)OC/C=C\CN3 (stereo not drawn) [Example 68, (11E)-7-cyano-18-(4-fluorophenyl)-18-methyl-10,13,14,16,17,18-hexahydro-15,2-(azeno)-8,4-(metheno)cyclopenta[h][1,6,10,12]oxatriazacycloheptadecine]
27 | 7.8 | N#Cc1ccc2cc1OCC=CCNc1nc(nc3c1CCC3c1ccccc1)N2 (stereo not drawn) [Example 21A, (11Z)-7-cyano-18-phenyl-10,13,14,16,17,18-hexahydro-15,2-(azeno)-8,4-(metheno)cyclopenta[h][1,6,10,12]oxatriazacycloheptadecine]
